Assay: xn = mol fraction of the nth substance listed
Conditions: 101.3 kPa, x2 = 0

CC1COC(=O)O1 (stereo not drawn) + CC[n+]1ccn(C)c1.N#C[S-]
viscosity (298.15 K): 2.496 mPa·s
viscosity (303.15 K): 2.164 mPa·s
viscosity (313.15 K): 1.731 mPa·s
viscosity (318.15 K): 1.586 mPa·s
viscosity (323.15 K): 1.466 mPa·s
viscosity (328.15 K): 1.373 mPa·s
viscosity (338.18 K): 1.223 mPa·s
viscosity (343.15 K): 1.173 mPa·s

Source: a compilation of properties of binary mixtures (doi:10.1007/s10953-022-01154-2)
